# Reference: US20260306527A1, “PRMT INHIBITOR COMPOUNDS AND THE USES THEREOF” (Purdue Research Foundation, priority 2023, published 2026)
# Where two headings read alike, the source gives them in different places.
# Key:
# Assay type in all cases: biochemical
# PRMT4 [1] = test: radioactive assay (Reaction Biology Corp.), inhibition of PRMT4
# Description: (§1) Next, the inhibition activity of the library was investigated for five PRMT members from type I PRMTs.
# (§2) The PRMT 4, 6 and 8 methylation assays were performed by Reaction Biology corp.
# PRMT4 [2] = molecular target: T1, PRMT4 (Homo sapiens, UniProt Q86X55); test: as above
# T1 sequence (Q86X55 1-608): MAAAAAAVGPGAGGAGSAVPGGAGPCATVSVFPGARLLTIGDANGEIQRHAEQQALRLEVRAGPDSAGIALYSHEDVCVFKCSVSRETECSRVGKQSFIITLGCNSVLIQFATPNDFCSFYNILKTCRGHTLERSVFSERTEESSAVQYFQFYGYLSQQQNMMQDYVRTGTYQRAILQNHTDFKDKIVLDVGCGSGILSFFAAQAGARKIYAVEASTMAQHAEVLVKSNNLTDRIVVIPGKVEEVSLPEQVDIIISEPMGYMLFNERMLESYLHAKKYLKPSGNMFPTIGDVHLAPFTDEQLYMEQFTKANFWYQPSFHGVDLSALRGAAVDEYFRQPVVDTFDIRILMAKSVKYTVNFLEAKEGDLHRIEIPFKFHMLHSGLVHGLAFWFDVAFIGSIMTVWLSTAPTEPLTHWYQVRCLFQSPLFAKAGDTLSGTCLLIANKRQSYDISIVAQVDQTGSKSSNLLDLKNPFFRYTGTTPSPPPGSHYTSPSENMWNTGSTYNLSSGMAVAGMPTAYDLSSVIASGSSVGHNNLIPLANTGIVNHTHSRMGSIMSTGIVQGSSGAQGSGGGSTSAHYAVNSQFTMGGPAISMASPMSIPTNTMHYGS
# Description: as §1, §2
# PRMT3 [3] = molecular target: PRMT3 (Homo sapiens, UniProt O60678); test: SAHH-coupled fluorescence assay, inhibition of PRMT3; set-up: PRMT3 (residues 211-531) was cloned into the pET28a-MHL expression vector; tag of the pET28a-MHL vector (not described); made in house; host or cells: Escherichia coli BL21(DE3)
# Outline: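 Coupled SAHH/ThioGlo4 fluorescence read-out (ex 380 nm, em 505 nm) of PRMT3 (0.25 μM) methylation with 30 μM AdoMet and 5 μM SAHH. Buffer was 20 mM Tris pH 7.5 with 0.01% Triton X-100. Run in duplicate.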
# PRMT6 = PRMT6 (Homo sapiens, UniProt Q96LA8); test: radioactive assay (Reaction Biology Corp.), inhibition of PRMT6
# Description: as §1, §2
# PRMT1 = molecular target: T2, PRMT1 (Homo sapiens, UniProt Q99873); test: SAHH-coupled fluorescence assay, inhibition of PRMT1; settings: for IC50: read-out: IC50[μM] | PRMT1
# T2 construct: made in house
# Outline: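 PRMT1 (0.1 μM) was run with 10 μM AdoMet, 5 μM SAHH and 10 μM ThioGlo4 in 2.5 mM HEPES pH 7.0, 25 mM NaCl, 25 μM EDTA, 50 μM TCEP and 0.01% Triton X-100. Fluorescence (ex 400/em 465 nm) was monitored for 15 min. Assays were done in duplicate.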
# PRMT8 = PRMT8 (Homo sapiens, UniProt Q9NR22); test: radioactive assay (Reaction Biology Corp.), inhibition of PRMT8
# Description: as §1, §2
# PRMT3 [4] = test: SAHH-coupled fluorescence assay, inhibition of PRMT3
# Description: A fluorescence-based SAHH-coupled assay was applied to study the inhibition activity of all synthesized compounds on PRMT 1 and 3.
# (§3) The PRMT3 methylation assay was performed under the following conditions in a final well volume of 100 μL: 20 mM Tris (pH=7.5), 0.01% Triton X-100, 5 μM SAHH, 0.25 μM PRMT3, 30 μM AdoMet, and 15 μM ThioGlo4. […] Fluorescence was monitored on a BMG CLARIOstar microplate reader with excitation 380 nm and emission 505 nm. Data were processed by using GraphPad Prism software 8.0. All experiments were performed in duplicate.
# as §1
# as §3, with “8.0.” for “8.0. All experiments were performed in duplicate.”
# PRMT3 (Homo sapiens, UniProt O60678), sequence (O60678 211-531): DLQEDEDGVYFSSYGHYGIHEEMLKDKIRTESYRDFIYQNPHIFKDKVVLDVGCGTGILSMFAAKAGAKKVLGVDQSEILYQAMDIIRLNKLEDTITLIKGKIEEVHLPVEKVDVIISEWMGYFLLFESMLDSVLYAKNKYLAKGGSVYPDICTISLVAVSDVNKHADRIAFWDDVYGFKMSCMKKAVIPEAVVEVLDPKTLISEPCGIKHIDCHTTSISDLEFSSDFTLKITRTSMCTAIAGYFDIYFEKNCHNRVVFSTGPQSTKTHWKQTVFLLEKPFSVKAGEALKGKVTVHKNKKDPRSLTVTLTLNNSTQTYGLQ
# PRMT8, sequence (Q9NR22 whole entry, species assumed): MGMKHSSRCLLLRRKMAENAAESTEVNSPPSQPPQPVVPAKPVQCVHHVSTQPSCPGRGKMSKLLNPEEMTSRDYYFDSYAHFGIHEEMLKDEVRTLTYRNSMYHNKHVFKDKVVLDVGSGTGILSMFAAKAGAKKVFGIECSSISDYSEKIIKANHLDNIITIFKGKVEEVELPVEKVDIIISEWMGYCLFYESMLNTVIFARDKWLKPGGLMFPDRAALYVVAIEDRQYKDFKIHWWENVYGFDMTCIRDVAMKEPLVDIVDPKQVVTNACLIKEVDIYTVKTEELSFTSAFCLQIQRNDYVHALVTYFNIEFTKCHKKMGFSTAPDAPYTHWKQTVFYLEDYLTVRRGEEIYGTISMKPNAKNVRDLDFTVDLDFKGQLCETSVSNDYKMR
# T2 sequence (Q99873 whole entry, species assumed): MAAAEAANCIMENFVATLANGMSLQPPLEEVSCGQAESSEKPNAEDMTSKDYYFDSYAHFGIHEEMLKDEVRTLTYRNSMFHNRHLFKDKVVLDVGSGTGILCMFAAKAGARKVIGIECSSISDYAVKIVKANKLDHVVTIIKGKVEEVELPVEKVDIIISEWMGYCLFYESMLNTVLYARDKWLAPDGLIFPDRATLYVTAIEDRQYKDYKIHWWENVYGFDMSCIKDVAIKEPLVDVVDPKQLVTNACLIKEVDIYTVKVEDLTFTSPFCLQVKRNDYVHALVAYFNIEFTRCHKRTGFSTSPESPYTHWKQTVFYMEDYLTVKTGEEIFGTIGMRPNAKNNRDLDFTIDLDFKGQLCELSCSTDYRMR
# PRMT6, sequence (Q96LA8 whole entry, species assumed): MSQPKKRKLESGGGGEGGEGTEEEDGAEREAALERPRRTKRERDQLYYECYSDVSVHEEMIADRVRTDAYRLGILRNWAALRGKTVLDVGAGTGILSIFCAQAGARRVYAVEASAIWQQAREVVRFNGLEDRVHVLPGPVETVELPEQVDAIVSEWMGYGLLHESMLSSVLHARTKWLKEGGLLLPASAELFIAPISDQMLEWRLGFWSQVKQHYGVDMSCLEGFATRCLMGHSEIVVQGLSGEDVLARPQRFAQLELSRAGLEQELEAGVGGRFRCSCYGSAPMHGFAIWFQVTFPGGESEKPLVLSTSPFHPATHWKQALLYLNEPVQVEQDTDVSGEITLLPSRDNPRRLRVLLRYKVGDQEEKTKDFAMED
Structure (SMILES),IC50 (PRMT4 [1]),inhibition at 10 µM (PRMT4 [2]),inhibition at 10 µM (PRMT3 [3]),inhibition at 10 µM (PRMT6),inhibition at 10 µM (PRMT1),inhibition at 10 µM (PRMT8),IC50 (PRMT3 [4]; read-out: IC50[μM] | PRMT3),IC50 (PRMT1),fold reduction of PRMT3 inhibition vs YD1113 (PRMT3 [3]; vs YD1113),IC50 (PRMT3 [4]; read-out: IC50 [µM] | PRMT3),PRMT6 inhibition (PRMT6; 10 μM)
Nc1ncnc2c1ncn2[C@@H]1O[C@H](CSCCNCc2cccc(-c3ccoc3)c2)[C@@H](O)[C@H]1O [Compound 10d],1.2 ± 0.18 µM,100%,1%,46%,14%,44%,,,,,
Nc1ncnc2c1ncn2[C@@H]1O[C@H](CSCCNC(=O)NCc2ccccc2Br)[C@@H](O)[C@H]1O [Compound 7h],0.021 ± 0.0028 µM,96%,25%,-11%,12%,-13%,,,,,
Nc1ncnc2c1ncn2[C@@H]1O[C@H](CSCCNCc2cccc(-c3cncnc3)c2)[C@@H](O)[C@H]1O [Compound 10g],9.3 ± 1.1 µM,98%,13%,31%,5%,36%,,,,,
N=C(NCCSC[C@H]1O[C@@H](n2cnc3c(N)ncnc32)[C@H](O)[C@@H]1O)Nc1cccc(-c2ccc(Cl)cc2)c1 [Compound 6a],,100%,62%,91%,89%,97%,5.9 ± 0.34 µM,0.21 ± 0.054 µM,,,
N=C(NCCSC[C@H]1O[C@@H](n2cnc3c(N)ncnc32)[C@H](O)[C@@H]1O)Nc1cccc(-c2cccc(F)c2)c1 [Compound 6d],,100%,26%,67%,68%,81%,18 ± 2.1 µM,4.9 ± 0.11 µM,,,
N=C(NCCCSC[C@H]1O[C@@H](n2cnc3c(N)ncnc32)[C@H](O)[C@@H]1O)Nc1cccc(-c2ccc3c(c2)OCCO3)c1 [Compound 6g],,100%,64%,98%,87%,99%,3.2 ± 0.47 µM,0.21 ± 0.023 µM,,,
N=C(NCCCSC[C@H]1O[C@@H](n2cnc3c(N)ncnc32)[C@H](O)[C@@H]1O)Nc1cccc(-c2ccc(F)c(O)c2)c1 [Compound 6l],,100%,58%,97%,92%,99%,5.5 ± 1 µM,0.17 ± 0.022 µM,,,
N=C(NCCCSC[C@H]1O[C@@H](n2cnc3c(N)ncnc32)[C@H](O)[C@@H]1O)Nc1cccc(-c2ccc(Cl)cc2)c1 [Compound 6f],,100%,76%,97%,92%,100%,1.8 ± 0.23 µM,0.2 ± 0.031 µM,,,
"Nc1ncnc2c1ncn2[C@@H]1O[C@H](CSCCNC(=O)Nc2ccc(F)cc2)[C@@H](O)[C@H]1O [Compound 7j, 1-(2-((((2S,3S,4R,5R)-5-(6-amino-9H-purin-9-yl)-3,4-dihydroxytetrahydrofuran-2-yl)methyl)thio)ethyl)-3-(4-fluorophenyl)urea]",,88%,78%,17%,17%,1%,,,4 fold,2 ± 0.23 µM,inactive to PRMT6
Nc1ncnc2c1ncn2[C@@H]1O[C@H](CSCCCNCc2cccc(-c3cncnc3)c2)[C@@H](O)[C@H]1O [Compound 10s],49 ± 5.7 µM,97%,24%,65%,28%,39%,,,,,
